Measurements published in patent publication US20250074910A1, “MENIN INHIBITOR AND USE THEREOF” (HITGEN INC., priority 2021, published 2025).

How the values were obtained:
[1] = molecular target: Menin/MLL-4-43 peptide interaction (Homo sapiens (Human), UniProt O00255); test: Menin-MLL interaction inhibitory activity assay (fluorescence polarization competition); type: binding; settings: FITC-MLL4-43-peptide, Menin recombinant protein
Experimental: Test Example 1: Menin-MLL Interaction Inhibitory Activity Assay
The inhibition of Menin/MLL-4-43 peptide interaction by small molecule inhibitors was quantitatively detected by fluorescence polarization competition assay. The experiment was performed in a 384-well plate (Corning, Cat #3575) using a reaction buffer consisting of 50 mM Tris, pH 7.5, 50 mM NaCl, and 1 mM DTT. A 40 μL reaction system included 10 μL of 8 nM Menin recombinant protein and 10 μL of the test compound at different concentrations. The compound was pre-incubated with Menin protein for 15 min, and then 20 μL of 10 nM FITC-MLL4-43-peptide was added. After incubation on a shaker at 25° C. for 60 min, the fluorescence polarization signal (FP 485 520 520) was read using BMG PHERAStar detection. The experimental data was analyzed and processed by GraphPad Prism 6 software to obtain the IC50 value. The control compound 1 was prepared by referring to the method of Example 64 in WO2017214367.

MV4-11 = test: Cell proliferation inhibition (CellTiter-Glo), MV4-11; type: cell-based; settings: MV4-11 cells
Experimental: (§1) Test Example 2: Test of the Inhibitory Ability of Menin-MLL Interaction Inhibitors on Cell Proliferation
(§2) The inhibitory ability of the compounds of the present disclosure on the proliferation of tumor cell lines (including cell lines containing MLL fusion protein such as MV4-11, MOLM-13, THP-1 and NOMO-1, control cell lines without MLL fusion protein such as HL-60, K562 and MOLM-16, and cell lines containing NPM1 mutation such as OCI-AML3) was evaluated by using the cell viability analysis method. The cells were plated in 96-well plates at a certain concentration (e.g., 5,000-20,000 cells/well), and then an equal volume of culture medium containing 2 times the final concentration of the test compound (the final concentration ranging 10 from 1 nM to 10 μM) was added. The plates were placed in an incubator and cultured at 37° C. and 5% CO2 for 72-168 h. Before the test, an equal volume of CellTiter-Glo® Luminescent reagent was added, and the plate was incubated at room temperature for 10 min before detection using an ELISA reader (BMG LABTECH). The data were analyzed using GraphPad Prism software to obtain the IC50 value and compound fitting curve. The control compound 1 was prepared by referring to the method of Example 64 in WO2017214367.

OCI-AML3 = test: Cell proliferation inhibition (CellTiter-Glo), OCI-AML3 (NPM1 mutation); type: cell-based; settings: OCI-AML3 cells
Experimental: as §1, §2

Menin/MLL-4-43 peptide interaction, sequence (O00255 whole entry, species assumed): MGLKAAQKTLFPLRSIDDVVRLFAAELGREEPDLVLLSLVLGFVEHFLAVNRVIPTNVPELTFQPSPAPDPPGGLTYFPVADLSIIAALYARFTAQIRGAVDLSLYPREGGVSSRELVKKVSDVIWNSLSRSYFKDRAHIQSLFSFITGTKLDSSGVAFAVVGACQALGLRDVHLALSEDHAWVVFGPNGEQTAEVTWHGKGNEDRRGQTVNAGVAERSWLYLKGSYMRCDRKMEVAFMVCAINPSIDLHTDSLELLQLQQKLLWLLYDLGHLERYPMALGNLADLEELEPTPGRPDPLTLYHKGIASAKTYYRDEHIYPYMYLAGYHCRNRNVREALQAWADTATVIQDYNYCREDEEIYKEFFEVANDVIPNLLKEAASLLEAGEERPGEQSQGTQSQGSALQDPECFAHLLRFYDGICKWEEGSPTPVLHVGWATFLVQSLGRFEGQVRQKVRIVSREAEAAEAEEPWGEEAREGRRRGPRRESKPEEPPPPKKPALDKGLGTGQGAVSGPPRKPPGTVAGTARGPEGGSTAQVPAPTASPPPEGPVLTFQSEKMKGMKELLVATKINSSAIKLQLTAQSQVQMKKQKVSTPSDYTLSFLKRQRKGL

| SMILES | IC50 [1] [nM] | GI50 (MV4-11; 72 h) [nM] | GI50 (MV4-11; Homo sapiens, MV4-11, 72 h) [nM] | GI50 (OCI-AML3; Homo sapiens, OCI-AML-3, 168 h) [nM] | GI50 (OCI-AML3; 168 h) [nM] |
| --- | --- | --- | --- | --- | --- |
| CCN(C(=O)c1cc(F)ccc1Oc1cncnc1N1CC2(CCN(CC3CC4CCC3CC43CCC(=O)N3)CC2)C1)C(C)C (single isomer, unassigned) [Example 3-2] | 113 | 86.1 | – | – | – |
| CCN(C(=O)c1cc(F)ccc1Oc1cncnc1N1CC2(CCN(CC3CC4CCC3CC43CCC(=O)N3)CC2)C1)C(C)C (single isomer, unassigned) [Example 3] | 24 | – | 94.7 | – | – |
| CCN(C(=O)c1cc(F)ccc1Oc1cncnc1N1CC2(CCN(CC3CC4CCC3CC43CCC(=O)N3)CC2)C1)C(C)C (single isomer, unassigned) [Example 4-1] | 12.1 | 55 | – | – | – |
| CCN(C(=O)c1cc(F)ccc1Oc1cncnc1N1CC2(CCN(CC3CC4CCC3CC43CCC(=O)N3)CC2)C1)C(C)C (single isomer, unassigned) [Example 4-2] | 60.7 | – | – | – | – |
| CCN(C(=O)c1cc(F)ccc1Oc1cncnc1N1CC2(CCN(CC3CC4CCC3CC43CCC(=O)N3)CC2)C1)C(C)C (single isomer, unassigned) [Example 4] | 29 | 61 | – | – | – |
| CC(C)N(C(=O)c1cc(F)ccc1Oc1cncnc1N1CC2(CCN(CC3CC4CCC3CC43CCC(=O)N3)CC2)C1)C(C)C (single isomer, unassigned) [Example 13-1] | 21.3 | – | 82.6 | – | – |
| CC(C)N(C(=O)c1cc(F)ccc1Oc1cncnc1N1CC2(CCN(CC3CC4CCC3CC43CCC(=O)N3)CC2)C1)C(C)C (single isomer, unassigned) [Example 13-1a] | 177 | – | – | – | – |
| CC(C)N(C(=O)c1cc(F)ccc1Oc1cncnc1N1CC2(CCN(CC3CC4CCC3CC43CCC(=O)N3)CC2)C1)C(C)C (single isomer, unassigned) [Example 13-2] | 24.9 | 49.7 | – | – | – |
| CC(C)N(C(=O)c1cc(F)ccc1Oc1cncnc1N1CC2(CCN(CC3CC4CCC3CC43CCC(=O)N3)CC2)C1)C(C)C (single isomer, unassigned) [Example 13-2a] | 16.5 | 25.2 | – | – | – |
| CC(C)N(C(=O)c1cc(F)ccc1Oc1cncnc1N1CC2(CCN(CC3CC4CCC3CC43CCC(=O)N3)CC2)C1)C(C)C (single isomer, unassigned) [Example 13-2b] | 142 | 153 | – | – | – |
| CC(C)N(C(=O)c1cc(F)ccc1Oc1nncnc1N1CC2(CCN(CC3CC4CCC3CC43CCC(=O)N3)CC2)C1)C(C)C (single isomer, unassigned) [Example 15-1b] | 142 | – | – | – | – |
| CC(C)N(C(=O)c1cc(F)ccc1Oc1cncnc1N1CC2(CCN(CC3CC4CCC3CC43COC(=O)N3)CC2)C1)C(C)C (single isomer, unassigned) [Example 51-1b] | 46.7 | – | 16.1 | 20.3 | – |
| CC(C)N(C(=O)c1cc(F)ccc1Oc1cncnc1N1CC2(CCN(CC3CC4CCC3CC43COC(=O)N3)CC2)C1)C(C)C (single isomer, unassigned) [Example 51-2a] | 70.7 | 11.7 | – | – | 31.5 |
| CC(C)N(C(=O)c1cc(F)ccc1Oc1cncnc1N1CC2(CCN(CC3CC4CCC3CC43COC(=O)N3)CC2)C1)C(C)C (single isomer, unassigned) [Example 51-2b] | 141 | – | – | – | – |
| CC(C)N(C(=O)c1cc(F)ccc1Oc1nncnc1N1CC2(CCN(CC3CC4CCC3CC43COC(=O)N3)CC2)C1)C(C)C (single isomer, unassigned) [Example 52-1b] | 38.7 | 11.9 | – | 40 | – |
| CC(C)N(C(=O)c1cc(F)ccc1Oc1nncnc1N1CC2(CCN(CC3CC4CCC3CC43COC(=O)N3)CC2)C1)C(C)C (single isomer, unassigned) [Example 52-2a] | 81.9 | 43.6 | – | – | 47.9 |
| CC(C)N(C(=O)c1cc(F)ccc1Oc1nncnc1N1CC2(CCN(CC3CC4CCC3CC43COC(=O)N3)CC2)C1)C(C)C (single isomer, unassigned) [Example 52-2b] | 198 | – | – | – | 50.6 |
| CC(C)N(C(=O)c1cc(F)ccc1Oc1nncnc1N1CC2(CCN(C[C@H]3CC[C@@]4(CCC(=O)N4)CC3)CC2)C1)C1CC1 [Example 11] | 167 | – | – | – | – |
| CCN(C(=O)c1cc(F)ccc1Oc1cncnc1N1CC2(CCN(C[C@H]3CC[C@]4(CC3)CC(C)(C)C(=O)N4)CC2)C1)C(C)C [Example 21] | 9.8 | – | 13.1 | 39.8 | – |
| CC(C)N(C(=O)c1cc(F)ccc1Oc1cncnc1N1CC2(CCN(C[C@H]3CC[C@]4(CC3)CC(C)(C)C(=O)N4)CC2)C1)C(C)C [Example 22] | 16.6 | – | 11.3 | 24 | – |
| CC(C)N(C(=O)c1cc(F)ccc1Oc1nncnc1N1CC2(CCN(C[C@H]3CC[C@]4(CC3)CC(C)(C)C(=O)N4)CC2)C1)C(C)C [Example 27] | 16.3 | – | 13 | 32.1 | – |
| CC(C)N(C)C(=O)c1cc(F)ccc1Oc1nncnc1N1CC2(CCN(C[C@H]3CC[C@]4(CC3)CC(C)(C)C(=O)N4)CC2)C1 [Example 28] | 134 | – | – | – | – |
| [2H]C([2H])([2H])C1(C([2H])([2H])[2H])C[C@]2(CC[C@@H](CN3CCC4(CC3)CN(c3ncnnc3Oc3ccc(F)cc3C(=O)N(CC)C(C)C)C4)CC2)NC1=O [Example 33] | 8.4 | – | 20.5 | – | – |
| [2H]C([2H])([2H])C1(C([2H])([2H])[2H])C[C@]2(CC[C@@H](CN3CCC4(CC3)CN(c3ncnnc3Oc3ccc(F)cc3C(=O)N(C(C)C)C(C)C)C4)CC2)NC1=O [Example 34] | 6.4 | – | 12.6 | – | – |
| CCN(C(=O)c1cc(F)ccc1Oc1cncnc1N1CC2(CCN(C[C@H]3CC[C@]4(CC3)C[C@@H](COC)C(=O)N4)CC2)C1)C(C)C [Example 35] | 3.6 | – | 11.7 | – | – |
| COC[C@@H]1C[C@]2(CC[C@@H](CN3CCC4(CC3)CN(c3ncncc3Oc3ccc(F)cc3C(=O)N(C(C)C)C(C)C)C4)CC2)NC1=O [Example 36] | 4.4 | – | 13.1 | – | – |
| CC1C[C@]2(CC[C@@H](CN3CCC4(CC3)CN(c3ncncc3Oc3ccc(F)cc3C(=O)N(C(C)C)C(C)C)C4)CC2)NC1=O (some centres unmarked) [Example 39] | 23.8 | – | 20 | – | – |
| C=C1C[C@]2(CC[C@@H](CN3CCC4(CC3)CN(c3ncncc3Oc3ccc(F)cc3C(=O)N(C(C)C)C(C)C)C4)CC2)NC1=O [Example 62] | 19.9 | – | 34.8 | – | – |

Continued, values first:

| IC50 [1] [nM] | GI50 (MV4-11; 72 h) [nM] | GI50 (MV4-11; Homo sapiens, MV4-11, 72 h) [nM] | GI50 (OCI-AML3; Homo sapiens, OCI-AML-3, 168 h) [nM] | GI50 (OCI-AML3; 168 h) [nM] | SMILES |
| --- | --- | --- | --- | --- | --- |
| 34.9 | 82.8 | – | – | – | CCN(C(=O)c1cc(F)ccc1Oc1nncnc1N1CC2(CCN(C[C@H]3CC[C@]4(CC3)CC(C)C(=O)N4)CC2)C1)C(C)C (single isomer, unassigned) [Example 40-2] |
| 44.5 | – | – | – | – | [2H]C([2H])([2H])C1C[C@]2(CC[C@@H](CN3CCC4(CC3)CN(c3ncnnc3Oc3ccc(F)cc3C(=O)N(CC)C(C)C)C4)CC2)NC1=O (single isomer, unassigned) [Example 42-2] |
| 36 | – | 74.4 | – | – | CCN(C(=O)c1cc(F)ccc1Oc1cncnc1N1CC2(CCN(CC3CC4CCC3CC43COC(=O)N3)CC2)C1)C(C)C (single isomer, unassigned) [Example 50-1] |
| 39.9 | 69.1 | – | – | – | CCN(C(=O)c1cc(F)ccc1Oc1cncnc1N1CC2(CCN(CC3CC4CCC3CC43COC(=O)N3)CC2)C1)C(C)C (single isomer, unassigned) [Example 50-2] |
| 135 | – | – | – | – | CC(C)N(C(=O)c1cc(F)ccc1Oc1nncnc1N1CC2(CCN(CC3CC4CCC3CC43COC(=O)N3)CC2)C1)C(C)C (single isomer, unassigned) [Example 52-1] |
| 93.9 | – | – | – | – | CC(C)N(C(=O)c1cc(F)ccc1Oc1nncnc1N1CC2(CCN(CC3CC4CCC3CC43COC(=O)N3)CC2)C1)C(C)C (single isomer, unassigned) [Example 52-2] |
| 103 | – | – | – | – | CCN(C(=O)c1cc(F)ccc1Oc1nncnc1N1CC2(CCN(CC3CC4CCC3CC43CCC(=O)N3)CC2)C1)C(C)C (centres unmarked) [Example 14-1] |
| 90.9 | – | – | – | – | CC(C)N(C(=O)c1cc(F)ccc1Oc1nncnc1N1CC2(CCN(CC3CC4CCC3CC43CCC(=O)N3)CC2)C1)C(C)C (centres unmarked) [Example 15-1] |
| – | – | 130 | – | – | CC(C)N(C(=O)c1cc(F)ccc1Oc1nncnc1N1CC2(CCN(CC3CC4CCC3CC43CCC(=O)N3)CC2)C1)C1CC1 (centres unmarked) [Example 16-1] |
| 163 | – | – | – | – | CC(C)N(C(=O)c1cc(F)ccc1Oc1nncnc1N1CC2(CCN(CC3CC4CCC3CC43CCC(=O)N3)CC2)C1)C1CC1 (centres unmarked) [Example 16-2] |
| 22.4 | – | – | – | – | CC1C[C@]2(CC[C@@H](CN3CCC4(CC3)CN(c3ncnnc3Oc3ccc(F)cc3C(=O)N(C(C)C)C(C)C)C4)CC2)NC1=O (some centres unmarked) [Example 41-2] |
